Experimental data taken from patent publication US7244754B2, “2-methylthiazolidine-2,4-dicarboxylic acid and salts thereof for treatment of neurodegenerative diseases” (priority 2002, dated 2007).

How the values were obtained:
dopaminergic neurons = test: Intrastriatal sodium malonate lesion in rats; transmitters and metabolites in striatum and substantia nigra by HPLC; type: in vivo, Wistar rats; conditions: for activity of dopaminergic neurons (3-methoxytyramine concentration): lysine salt injected intraperitoneally four to five days before measuring, rats
MNRI mice = test: Apoplexy model: occlusion of the middle cerebral artery in mice, infarction surface by neutral red staining; type: in vivo; conditions: application after or before occlusion, as in examples 3 and 4
Text: In another animal experiment model (apoplexy model) it could be shown (examples 3 and 4) that 2-MTDC as well as salts of 2-MTDC have a cerebroprotective effect.
The following test series deals with the examination of the neuroprotective effect of 2-MTDC-Na in application of 2-MTDC-Na after the ischemia.
Per test group 13 through 16 MNRI mice were employed. The middle cerebral artery of the mice was occluded according to the method of Welsh (F. A. Welsh, T. Sakamoto, A. E. McKee, R. E. Sims, J. Neurochem. 1987, 49, 846-851). For that purpose the mice are anesthetized with tribromoethanol (600 mg/kg body weight, intraperitoneally). Immediately after the anesthesia a small cavity was drilled into the mice cranium to lay open the middle cerebral artery. The strain as well as both arms of the middle cerebral artery were occluded via electro coagulation. Meanwhile the blood heat of the mice was kept on 37° C.±1° C. by utilizing a heating lamp. Subsequently the mice were kept at a surrounding temperature of 30° C. for another 2 h.
One group of mice was injected intraperitoneally 2-MTDC-Na (200 mg/kg 2-MTDC-Na dissolved in 0.9% NaCl solution) 15 minutes after and another group 60 minutes after the occlusion of the middle cerebral artery. A third group received the vehicle only (0.9% NaCl solution without 2-MTDC-Na).
For the following histologic examination 2 days after the occlusion of the middle cerebral artery the mice were anesthetized again with tribromoethanol and received intraperitoneally applied 0.5 ml of a 1.5% solution of neutral red (toluylene red, Acros Chimica) in addition. The brains were extracted and kept for 24 h in a fixative solution (4% formalin with phosphate buffer at pH 7.4).
The tissue on the surface of the brain which was not colored by neutral red was measured as surface region affected by infarction under utilizing a color analysis system (Kontron, Eching, Germany) (C. Backhauβ, C. Karkoutly, M. Welsh, J. Krieglstein, J. Pharmacol Toxicol Methods, 1992, 27 (2), 27-32).
The execution of the test according to example 3 was repeated whereas 2-MTDC-Na was applied one hour before the occlusion of the middle cerebral artery (MCA-O: occlusion of the middle cerebral artery).

striatum of rats = conditions: seven days after injecting the malonate; cited from earlier work

SMILES: CC1(C(=O)O)NC(C(=O)O)CS1.NCCCCC(N)C(=O)O.NCCCCC(N)C(=O)O (centres unmarked) [2-MTDC-lys]
- influence on the concentration of dopamine, DOPAC, HVA (dopaminergic neurons; 2-MTDC-lys solely (no malonate), 2x0.8 mmol/kg i.p., four days after last application): no influence
- effect on dopaminergic versus serotonergic neurons (5-HT, 5-HIAA) (dopaminergic neurons; chosen dose rate, examination period of four days from last application): affects obviously dopaminergic neurons but not serotonergic neurons
- activity of dopaminergic neurons (3-methoxytyramine concentration) (dopaminergic neurons): long persistent activation
- activity of dopaminergic neurons (3-methoxytyramine concentration) (dopaminergic neurons; listed as lysine salt of 2-MTDC): intense activation of the dopaminergic neurons
- effect of malonate on the reduction of dopamine and dopamine metabolite concentrations (neuroprotection) (dopaminergic neurons; pretreatment 2x0.8 mmol/kg i.p., 2 μmol sodium malonate into left striatum, four days after last application): prevents the toxic effect of malonate
- neurodegeneration of nerve ends in the striatum and cell bodies in the substantia nigra (dopaminergic neurons; treatment before malonate (prophylactic)): prevents the neurodegeneration
- infarction extent induced by occlusion of the cerebral artery (test series of examples 3 and 4) (MNRI mice; listed as lysine salts of 2-MTDC): capable of reducing the infarction extent

SMILES: CC1(C(=O)O)N[C@H](C(=O)O)CS1 (mixture of isomers) [2-MTDC, (2RS,4R)-2-methylthiazolidine-2,4-dicarboxylic acid]
- infarction extent induced by occlusion of the cerebral artery (test series of examples 3 and 4) (MNRI mice): capable of reducing the infarction extent

SMILES: C[C@@]1(C(=O)O)N[C@H](C(=O)O)CS1 [(2R,4R)-2-methylthiazolidine-2,4-dicarboxylic acid]
- infarction extent induced by occlusion of the cerebral artery (test series of examples 3 and 4) (MNRI mice): capable of reducing the infarction extent

SMILES: C[C@]1(C(=O)O)N[C@H](C(=O)O)CS1 [(2S,4R)-2-methylthiazolidine-2,4-dicarboxylic acid]
- infarction extent induced by occlusion of the cerebral artery (test series of examples 3 and 4) (MNRI mice): capable of reducing the infarction extent

SMILES: O=C([O-])CC(=O)[O-].[Na+].[Na+] [malonate, sodium malonate]
- concentration of dopamine in the striatum compared to the contralateral striatum (striatum of rats): 6%
